Assay [1] has as its system Cluster 1 haloalkaliphilic bacteria. In words: Antibiotic sensitivity, distribution of positive characters. To be noted: share of strains of cluster 1 (78.5% similarity level, SSM) scored positive = clear zone around antibiotic disk; Medium A agar, 37° C., up to 14 days. The assay is classed as cell-based. As to the method:
(§1) A light suspension of bacteria in alkaline, saline, nutrient broth was spread on the surface of alkaline nutrient, saline agar (Medium A) and allowed to dry. Commercially available antibiotic susceptibility test disks (Oxoid or Mast Laboratories: Merseyside, U.K.) were applied to the agar surface. The bacteria were cultivated at 37° C. for up to 14 days. Clear zones around the antibiotic disks indicated sensitivity and were recorded as positive.

Assay [2] concerns Cluster 2 haloalkaliphilic bacteria. The assay is described as above. The assay is classed as cell-based. To be noted: share of strains of cluster 2 (78.5% similarity level, SSM) scored positive = clear zone around antibiotic disk; Medium A agar, 37° C., up to 14 days. The procedure:
as §1

A further assay concerns Strain 93dLM.4. Briefly: Antibiotic sensitivity (susceptibility test disks on Medium A agar). In kind it is cell-based. To be noted: antibiotic disks (contents in Appendix C), 37° C., up to 14 days. As to the method: as §1
For another assay, the system named is Strain 86M.4. The description is as above. The assay is classed as cell-based. To be noted: antibiotic disks (contents in Appendix C), 37° C., up to 14 days. As to the method: as §1
A further assay relates to Strain 103Nt.4. Described as above. In kind it is cell-based. To be noted: antibiotic disks (contents in Appendix C), 37° C., up to 14 days. The procedure: as §1
For another assay, the system named is Strain 98Nt.4. The assay is described as above. To be noted: antibiotic disks (contents in Appendix C), 37° C., up to 14 days. In kind it is cell-based. As to the method: as §1
The next assay has as its system Strain 31M.4. The description is as above. In kind it is cell-based. To be noted: antibiotic disks (contents in Appendix C), 37° C., up to 14 days. As to the method:
as §1

A further assay relates to Strain 95LM.4. The description is as above. In kind it is cell-based. To be noted: antibiotic disks (contents in Appendix C), 37° C., up to 14 days. The procedure:
as §1

The subject of assay [3] is Cluster 3 haloalkaliphilic bacteria. In words: Antibiotic sensitivity, distribution of positive characters. The assay is classed as cell-based, haloalkaliphilic eubacteria. To be noted: share of strains of cluster 3 (78.5% similarity level, SSM) scored positive = clear zone around antibiotic disk; Medium A agar, 37° C., up to 14 days. The procedure: as §1
Assay [4] relates to Cluster 4 haloalkaliphilic bacteria. Described as above. In kind it is cell-based, haloalkaliphilic eubacteria. To be noted: share of strains of cluster 4 (78.5% similarity level, SSM) scored positive = clear zone around antibiotic disk; Medium A agar, 37° C., up to 14 days. The procedure: as §1
A further assay has as its system Strain 931LM.4. In words: Antibiotic sensitivity (susceptibility test disks on Medium A agar). To be noted: antibiotic disks (contents in Appendix C), 37° C., up to 14 days. In kind it is cell-based. As to the method: as §1

Positions of bridges follow the written chain, without caps; N, C: chain ends. Non-standard residues stand in square brackets, D forms with d. Residues, ends and D or L forms follow the SMILES beside them. *: point of attachment. Ileψ(thiazoline)Cys = CC[C@H](C)[C@H](N)C1=N[C@H](C(=O)*)CS1; dOrn = NCCC[C@@H](N)C(=O)O

In the case of `CC[C@H](C)[C@H](N)C1=N[C@H](C(=O)N[C@@H](CC(C)C)C(=O)N[C@H](CCC(=O)O)C(=O)N[C@H](C(=O)N[C@H]2CCCCNC(=O)[C@H](CC(N)=O)NC(=O)[C@@H](CC(=O)O)NC(=O)[C@H](Cc3cnc[nH]3)NC(=O)[C@@H](Cc3ccccc3)NC(=O)[C@H]([C@@H](C)CC)NC(=O)[C@@H](CCCN)NC2=O)[C@@H](C)CC)CS1` [bacitracin] ({Ileψ(thiazoline)Cys}-L[dE]IK[dOrn]I[dF]H[dD]N; lactam 4-C), the “Distribution of positive characters: antibiotic sensitivity, Cluster 1” value (“Distribution of positive characters … Cluster 1” for short) in assay [1] is listed as 100. Moreover, the “Distribution of positive characters: antibiotic sensitivity, Cluster 2” value (from here on “Distribution of positive characters … Cluster 2”) in [2] came to 82. The “Inhibition of growth by antibiotic” value in the assay with Strain 93dLM.4 was “inhibited”; in the assay on Strain 86M.4, “inhibited”; in the assay with Strain 103Nt.4 it was “not inhibited”; with Strain 98Nt.4 it was “inhibited”; in the assay on Strain 31M.4, “not inhibited”; with Strain 95LM.4, “inhibited”. Further, the “Distribution of positive characters: antibiotic sensitivity, Cluster 3” value (from here on “Distribution of positive characters … Cluster 3”) in assay [3] is recorded as 100. Further, the “Distribution of positive characters: antibiotic sensitivity, Cluster 4” value (from here on “Distribution of positive characters … Cluster 4”) in [4] came out at 100.
With `CC(=O)O[C@H]1C[C@@]2(C)[C@@H](C[C@@H](O)[C@H]3[C@@]4(C)CC[C@@H](O)[C@@H](C)[C@@H]4CC[C@@]32C)/C1=C(\CCC=C(C)C)C(=O)O` [fusidic acid], the “Distribution of positive characters … Cluster 1” value in assay [1] is 14. Also, the “Distribution of positive characters … Cluster 2” value in assay [2] amounted to 9. The “Inhibition of growth by antibiotic” value in the assay with Strain 931LM.4 is “inhibited”; in the assay with Strain 103Nt.4, “not inhibited”; with Strain 31M.4 it was “inhibited”. Besides, the “Distribution of positive characters … Cluster 3” value in assay [3] was 0. In addition, in [4], the “Distribution of positive characters … Cluster 4” value was 17.
As for `NC[C@H]1O[C@H](O[C@H]2[C@H](O)[C@@H](O[C@H]3O[C@H](CO)[C@@H](O)[C@H](N)[C@H]3O)[C@H](N)C[C@@H]2N)[C@H](O)[C@@H](O)[C@@H]1O` [kanamycin], in [1], the “Distribution of positive characters … Cluster 1” value was found to be 0. The “Distribution of positive characters … Cluster 2” value in [2] stood at 0. The “Inhibition of growth by antibiotic” value with Strain 93dLM.4, in the assay with Strain 86M.4, in the assay with Strain 98Nt.4 and in the assay on Strain 95LM.4 was “not inhibited” in each case. The “Distribution of positive characters … Cluster 3” value in [3] was 0. The “Distribution of positive characters … Cluster 4” value in assay [4] was determined as 17.
On to `COc1cccc(OC)c1C(=O)N[C@@H]1C(=O)N2[C@@H]1SC(C)(C)[C@@H]2C(=O)O` [methicillin], for which, in assay [1], the “Distribution of positive characters … Cluster 1” value came to 0. Moreover, in assay [2], the “Distribution of positive characters … Cluster 2” value is reported as 0. The “Inhibition of growth by antibiotic” value in the assay with Strain 931LM.4 is on record as “inhibited”; in the assay on Strain 103Nt.4 it was “not inhibited”; in the assay on Strain 31M.4, “inhibited”. In [3], the “Distribution of positive characters … Cluster 3” value was 0. The “Distribution of positive characters … Cluster 4” value in assay [4] is 0.
As for `CCn1cc(C(=O)O)c(=O)c2ccc(C)nc21` [nalidixic acid], the “Distribution of positive characters … Cluster 1” value in assay [1] turned out to be 0. The “Distribution of positive characters … Cluster 2” value in [2] was 18. In addition, the “Inhibition of growth by antibiotic” value in the assay with Strain 931LM.4, with Strain 103Nt.4 and in the assay on Strain 31M.4 was “inhibited” in each case. Moreover, in assay [3], the “Distribution of positive characters … Cluster 3” value is given as 0. Besides, the “Distribution of positive characters … Cluster 4” value in assay [4] is listed as 0.
Turning to `O=C1CN(/N=C/c2ccc([N+](=O)[O-])o2)C(=O)N1` [nitrofurantoin], in the assay with Strain 931LM.4, the “Inhibition of growth by antibiotic” value is “not inhibited”.
With `CO[C@H]1C[C@H](O[C@H]2[C@H](C)[C@@H](O[C@@H]3O[C@H](C)C[C@H](N(C)C)[C@H]3O)[C@@H](C)C[C@@]3(CO3)C(=O)[C@H](C)[C@@H](O)[C@@H](C)[C@@H](C)OC(=O)[C@@H]2C)O[C@@H](C)[C@@H]1O` [oleandomycin], the “Distribution of positive characters … Cluster 1” value in assay [1] is 0. Moreover, in assay [2], the “Distribution of positive characters … Cluster 2” value was 0. The “Inhibition of growth by antibiotic” value was “inhibited” with Strain 93dLM.4; “not inhibited” in the assay on Strain 86M.4; “not inhibited” with Strain 103Nt.4; “not inhibited” in the assay on Strain 98Nt.4; “inhibited” in the assay with Strain 31M.4; “inhibited” with Strain 95LM.4. Further, the “Distribution of positive characters … Cluster 3” value in [3] is reported as 100. For the same compound, the “Distribution of positive characters … Cluster 4” value in assay [4] is 100.
As for `CO[C@H]1/C=C/O[C@@]2(C)Oc3c(C)c(O)c4c(O)c(c(/C=N/N5CCN(C)CC5)c(O)c4c3C2=O)NC(=O)/C(C)=C\C=C\[C@H](C)[C@H](O)[C@@H](C)[C@@H](O)[C@@H](C)[C@H](OC(C)=O)[C@@H]1C` [rifampicin], in assay [1], the “Distribution of positive characters … Cluster 1” value is 14. In assay [2], the “Distribution of positive characters … Cluster 2” value is 64. Moreover, the “Inhibition of growth by antibiotic” value in the assay with Strain 86M.4, with Strain 103Nt.4 and with Strain 31M.4 was “not inhibited” each time. Further, in assay [3], the “Distribution of positive characters … Cluster 3” value is reported as 67. The “Distribution of positive characters … Cluster 4” value in assay [4] was determined as 83.
With `Cc1cc(NS(=O)(=O)c2ccc(N)cc2)no1` [sulphamethoxazole], the “Inhibition of growth by antibiotic” value in the assay on Strain 103Nt.4 is recorded as “inhibited”; with Strain 31M.4, “not inhibited”.
For `CN(C)[C@@H]1C(O)=C(C(N)=O)C(=O)[C@@]2(O)C(O)=C3C(=O)c4c(O)cccc4[C@@](C)(O)[C@H]3C[C@@H]12` [tetracycline], in assay [1], the “Distribution of positive characters … Cluster 1” value is on record as 14. Moreover, the “Distribution of positive characters … Cluster 2” value in [2] was found to be 9. In addition, the “Inhibition of growth by antibiotic” value in the assay with Strain 93dLM.4, with Strain 86M.4, in the assay on Strain 98Nt.4 and with Strain 95LM.4 was “not inhibited” each time. Moreover, the “Distribution of positive characters … Cluster 3” value in [3] worked out at 33. In assay [4], the “Distribution of positive characters … Cluster 4” value came out at 17.
For the compound `COc1cc(Cc2cnc(N)nc2N)cc(OC)c1OC` [trimethoprim], the “Inhibition of growth by antibiotic” value in the assay with Strain 931LM.4 is given as “not inhibited”; in the assay on Strain 103Nt.4 it was “inhibited”; in the assay with Strain 31M.4, “not inhibited”.
Regarding `CN[C@H](CC(C)C)C(=O)N[C@H]1C(=O)N[C@@H](CC(N)=O)C(=O)N[C@H]2C(=O)N[C@H]3C(=O)N[C@H](C(=O)N[C@H](C(=O)O)c4cc(O)cc(O)c4-c4cc3ccc4O)[C@H](O)c3ccc(c(Cl)c3)Oc3cc2cc(c3O[C@@H]2O[C@H](CO)[C@@H](O)[C@H](O)[C@H]2O[C@H]2C[C@](C)(N)[C@H](O)[C@H](C)O2)Oc2ccc(cc2Cl)[C@H]1O` [vancomycin], in assay [1], the “Distribution of positive characters … Cluster 1” value is reported as 0. For the same compound, the “Distribution of positive characters … Cluster 2” value in assay [2] is on record as 0. Also, the “Inhibition of growth by antibiotic” value is recorded as “inhibited” with Strain 93dLM.4; “not inhibited” in the assay on Strain 86M.4; “not inhibited” with Strain 103Nt.4; “not inhibited” in the assay on Strain 98Nt.4; “inhibited” with Strain 95LM.4. Moreover, the “Distribution of positive characters … Cluster 3” value in assay [3] turned out to be 100. Further, the “Distribution of positive characters … Cluster 4” value in assay [4] is given as 83.
For Gentamycin, the “Distribution of positive characters … Cluster 1” value in assay [1] was 0. Also, the “Distribution of positive characters … Cluster 2” value in assay [2] amounted to 0. Further, in assay [3], the “Distribution of positive characters … Cluster 3” value is on record as 67. For the same compound, in assay [4], the “Distribution of positive characters … Cluster 4” value was determined as 50.
As to neomycin, the “Distribution of positive characters … Cluster 1” value in assay [1] came to 0. In addition, the “Distribution of positive characters … Cluster 2” value in assay [2] worked out at 0. The “Inhibition of growth by antibiotic” value is on record as “not inhibited” with Strain 93dLM.4; “not inhibited” in the assay on Strain 86M.4; “inhibited” with Strain 103Nt.4; “not inhibited” with Strain 98Nt.4; “not inhibited” in the assay with Strain 95LM.4. Besides, the “Distribution of positive characters … Cluster 3” value in assay [3] came out at 0. Further, the “Distribution of positive characters … Cluster 4” value in assay [4] came to 0.
Turning to polymixin, in assay [1], the “Distribution of positive characters … Cluster 1” value is listed as 0. The “Distribution of positive characters … Cluster 2” value in assay [2] turned out to be 0. In addition, the “Inhibition of growth by antibiotic” value is given as “not inhibited” with Strain 93dLM.4; “not inhibited” in the assay with Strain 86M.4; “inhibited” in the assay with Strain 103Nt.4; “not inhibited” with Strain 98Nt.4; “not inhibited” in the assay on Strain 31M.4; “not inhibited” in the assay with Strain 95LM.4. The “Distribution of positive characters … Cluster 3” value in assay [3] is recorded as 0. The “Distribution of positive characters … Cluster 4” value in [4] is reported as 0.

The values above are taken from US6420147B1, “Haloalkaliphilic microorganisms” (Genencor International, Inc., priority 1991, dated 2002).
